Converted amounts (≈) assume the structure as drawn. “And” between values parts separate entries of the source, which are not always exact repeats. Equal values may be shown once. Read-outs that look alike come from different tables or passages of the source.
Assays:
M. kansasii = test: MIC in nontuberculosis mycobacteria (microbroth dilution, resazurin); assay type: cell-based; details: Mycobacterium kansasii
M. chelonae = test: as above; assay type: cell-based, Mycobacterium chelonae; details: Mycobacteroides chelonae
M. massiliense = test: as above; assay type: cell-based, Mycobacterium massiliense; details: Mycobacteroides abscessus
[1] = Aqueous solubility (visually clear solutions); assay type: physicochemical; details: aqueous, 1 N HCl and/or water added
Protocol: Working stocks of the compounds were prepared as follows: to an aliquot of a compound (free base) in a powder form 1-1.5 equivalents of HCl in the form of 1 N aqueous solution was added, and the mixture was vortexed until homogeneity. To the resulting cake or syrup, water was added typically to the final 10 mg/ml, and complete dissolution was observed. In some instances, 0.95 equivalents of HCl were added to the free base form of the drug, and 20 mg/ml stock solution was prepared.
Aqueous solubility of the compounds of the present disclosure is illustrated by the following observations of obtaining visually clear solutions: […]

[2] = system: African green monkey kidney (Vero; ATCC # CCL81) cells; test: In vitro cytotoxicity (PrestoBlue cell viability), Vero; assay type: cell-based; details: Chlorocebus sabaeus, Vero, 72 h, read-out: Cell viability IC50, VERO
[3] = In vitro burst release of liposomal drug in plasma, human; details: mouse or human plasma, 20 min 37° C., 0.5 M AS liposomes, 40-65 mol% Chol (FIG. 5A, 5B)
Protocol: The plasma was thawed, if necessary, adjusted to pH 7.4 with 1 N HCl, and sequentially filtered through glass microfiber filters (GF/C), 1 µm polyethersulfone (PES), and 0.22 µm PES filters. Plasma (80 µl) was mixed with liposomal drug formulations (20 µl) in a 0.5 ml Eppendorf tube. The mixture was subsequently incubated for 20 min at 37° C. and then put into chilled water.
Incubation time was 20 min.

M. abscessus = test: MIC in nontuberculosis mycobacteria (microbroth dilution, resazurin); assay type: cell-based, Mycobacterium abscessus; details: Mycobacteroides abscessus
[4] = system: mitochondrial protein synthesis (COX-1/SDH-A ratio) in H9C2 rat heart myoblast cells; test: Mitochondrial protein synthesis inhibition (MitoBiogenesis in-cell ELISA, COX-1/SDH-A); assay type: cell-based; details: 120 h, five days, read-out: MPS IC50
MRSA 880 NR-49120 = test: MIC against methicillin resistant Staphylococcus aureus (MRSA); details: read-out: MRSA MIC, 880 NR-49120
MRSA ATCC BAA-1556 = test: as above
MRSA ATCC 43300 = test: as above; details: read-out: MRSA MIC, ATCC 43300
M.avium = test: MIC in nontuberculosis mycobacteria (microbroth dilution, resazurin); assay type: cell-based, Mycobacterium avium; details: for MIC: Mycobacterium avium
[5] = Liposome loading / encapsulation efficiency (General protocol); details: for maximum drug load: HSPC:Chol 3:2, 0.5 mol% PEG-DSG (Example 14)
M.tb H37Rv = test: Broth microdilution MIC with Alamar blue endpoint (MABA) / OD600; assay type: cell-based, Mycobacterium tuberculosis
[6] = system: human hepatocyte/liver (HepG2; ATCC #HB8065) cells; test: In vitro cytotoxicity (PrestoBlue cell viability), HepG2; assay type: cell-based; details: Homo sapiens, HepG2, 72 h, read-out: Cell viability IC50, HepG2
M.tb Erdman = test: Broth microdilution MIC with Alamar blue endpoint (MABA) / OD600; assay type: cell-based, Mycobacterium tuberculosis
[7] = system: M. Tuberculosis Erdman or H37Rv vs VERO or HepG2 cells; test: Selectivity Index (mammalian cell IC50 / bacterial MIC); set-up: species or system Mycobacterium tuberculosis
[8] = male, Sprague-Dawley, rat, in vivo, 50 mg/kg, 8 weeks
Protocol: The control group was injected once weekly for 8 weeks with an equal volume of HEPES buffered saline (HBS, pH 7). Before the endpoint of the study animals were humanely euthanized by exsanguination from the abdominal aorta following isoflurane anesthesia. Blood and tissue samples were collected for evaluation of clinical pathology parameters. Representative samples of tissues were collected and preserved in 10% neutral buffered, embedded in paraffin, sectioned, mounted on glass slides, stained with hematoxylin and eosin, and evaluated for histopathology by a board-certified veterinary pathologist.
The following parameters and end points were also evaluated: mortality and moribundity check, clinical observations, body weights, food consumption, nerve conduction velocity (NCV) and muscle action potential (MAP), functional observation battery (FOB).

M. Tuberculosis Erdman [9] = details: eight weeks, Balb/c and C3HeB/FeJ mice; cited from earlier work
in vivo = details: male, Sprague-Dawley, rat
M. Tuberculosis Erdman [10] = test: Efficacy of monotherapy in chronic Balb/c model of tuberculosis (lung and spleen CFU); assay type: in vivo, Mycobacterium tuberculosis (in Balb/c mice)
[11] = male, Sprague-Dawley, rat, in vivo, po, 50 mg/kg
[12] = Balb/c mice, 50 mg/kg, q1x5, oral gavage
[13] = Balb/c mice, 100 mg/kg, q1x5, oral gavage

CN(C)CCn1nnc(-c2ccc(-c3ccc(N4C[C@H](CN)OC4=O)cc3F)cn2)n1.Cl [AKG-28]
MIC (M. kansasii): 0.125 µg/mL
MIC (M. kansasii; M. kansasii strain 662, read-out: MIC): > 32 µg/mL
MIC (M. chelonae; M. chelonae strain 49): 0.06 µg/mL
MIC (M. chelonae; M. chelonae strain 69): 0.5 µg/mL
MIC (M. chelonae; M. chelonae strain 35752): 0.125 µg/mL
MIC (M. massiliense): 0.25 µg/mL
MIC (M. massiliense; CIP108297): 1 µg/mL
Concentration % (w/w) of free base (visually clear solution) [1]: 7.3 % (w/w)
IC50 [2]: 83 µg/mL
burst release phenomenon in plasma in vitro [3]: observed in human plasma for the formulations containing 40 mol.% cholesterol, but not for the formulations with 45 mol.% or more of cholesterol
MIC (M. abscessus; M. abscessus sbsp. abscessus strain 21): 0.25 µg/mL
MIC (M. abscessus; M. abscessus sbsp. abscessus strain 1513): 32 µg/mL
MIC (M. abscessus; M. abscessus sbsp. abscessus strain 1948): 0.125 µg/mL
IC50 [4]: 0.411 µg/mL
MIC (MRSA 880 NR-49120): > 50 µg/mL
MIC (MRSA ATCC BAA-1556; read-out: MRSA MIC): > 50 µg/mL
MIC (MRSA ATCC BAA-1556; read-out: MRSA MIC, ATCC BAA-1556): > 50 µg/mL
MIC (MRSA ATCC 43300): > 50 µg/mL
potency relative to tedizolid in NTM species and strains (M.avium; M.avium, M. chelonae, M. abscessus and M. kansasii): generally more potent than tedizolid
MIC (M.avium; M. avium sbsp. avium strain 2285 R, read-out: MIC): 0.06 µg/mL
MIC (M.avium; M. avium sbsp. avium strain 2285 S): 0.125 µg/mL
MIC (M.avium; M. avium sbsp. avium strain 3993): 0.125 µg/mL
maximum drug load ([5]; 0.5 M AS): 404-424 g/mol PhL
loading efficiency ([5]; 0.5 M AS, at drug loads of 302 (AKG-28) and 387-764 (AKG-38) g/mol PhL): quantitative loading
maximum drug load ([5]; 1 N TEA-SOS): 315-328 g/mol PhL
maximum loading efficiency ([5]; 1 N TEA-SOS, at drug load 250 (AKG-28) and 400-777 (AKG-38) g/mol PhL): 83.5%
liposome aggregation during drug loading ([5]; 30 mol% cholesterol, 1 N TEA-SOS, AKG-28: 5 mol% PEG-DSG or PEG-DSPE, AKG-38: 5 mol% PEG-DSPE): irreversibly aggregated during the drug loading
loading efficiency (from unencapsulated drug in pre-concentration diafiltrate) ([5]; scaled-up lots, HSPC:Chol:PEG-DSPE 45:55:2.25, 0.5 M AS, DL 250 (AKG-28) or 450 (AKG-38) g/mol): 99.1% and 99.3%
MIC (M.tb H37Rv; Mycobacterium tuberculosis, H37RV, read-out: MIC (H37Rv)): 0.015 µg/mL
MIC (M.tb H37Rv; Mycobacterium tuberculosis, H37RV, read-out: Mycobacterium tuberculosis MIC, H37Rv): 0.015 µg/mL
IC50 [6]: 13.4 µg/mL
fold more potent than linezolid in killing M. Tuberculosis in vitro (M.tb Erdman; Erdmann strain): 33 fold
MIC (M.tb Erdman; Mycobacterium tuberculosis, ERDMAN, read-out: Mycobacterium tuberculosis MIC, Erdman): 0.03 µg/mL
Selectivity Index (SI) Erd/HepG2 [7]: 446.7
Selectivity Index (SI) Erd/VERO [7]: 2766.7

CC(=O)NC[C@H]1CN(c2ccc(N3CCOCC3)c(F)c2)C(=O)O1 [Linezolid]
Kidney: Vacuolation, mesangial cell, glomerular, Minimal (animals) [8]: 0
Kidney: Vacuolation, mesangial cell, glomerular, number of animals with the finding [8]: (0)
Liver: Degeneration, hepatocellular, centrilobular, Mild (animals) [8]: 0
Liver: Degeneration, hepatocellular, centrilobular, Minimal (animals) [8]: 0
Liver: Degeneration, hepatocellular, centrilobular, number of animals with the finding [8]: (0)
Liver: Single cell necrosis, centrilobular, Minimal (animals) [8]: 2
Liver: Single cell necrosis, centrilobular, number of animals with the finding [8]: (2)
Spleen: Accumulation, basophilic material, Mild (animals) [8]: 0
Spleen: Accumulation, basophilic material, Minimal (animals) [8]: 0
Spleen: Accumulation, basophilic material, number of animals with the finding [8]: (0)
Spleen: Vacuolation, macrophages, Mild (animals) [8]: 0
Spleen: Vacuolation, macrophages, Minimal (animals) [8]: 0
Spleen: Vacuolation, macrophages, Moderate (animals) [8]: 0
Spleen: Vacuolation, macrophages, number of animals with the finding [8]: (0)
log10 CFU counts, monotherapy (Lanoix et al. 2015) (M. Tuberculosis Erdman [9]): 4-6 log10 CFU
Vd (in vivo): 2.29 L/kg
AUC (in vivo; po, 50 mg/kg): 282 µg·h/mL
AUC0-inf (in vivo; po, 50 mg/kg): 374 µg·h/mL
AUC(0-t) (in vivo; po, 50 mg/kg): 282 µg·h/mL
Cmax (in vivo; po, 50 mg/kg): 26700 ng/mL
Tmax (in vivo; po, 50 mg/kg): 1 h
half-life (in vivo; po, 50 mg/kg): 712 min
EE ([5]; HSPC, 5 mol% PEG-lipid, 40-65 mol% Chol, DL0 250 (AKG-28) or 500 (AKG-38)): less than 5%
Lung Log CFU, 4 week (M. Tuberculosis Erdman [10]; [12]): 4.61 ± 0.31 Log CFU
Spleen Log CFU, 4 week (M. Tuberculosis Erdman [10]; [12]): 4.32 ± 0.28 Log CFU
Lung Log CFU, 2 week (M. Tuberculosis Erdman [10]; [13]): 5.58 ± 0.10 Log CFU
Lung Log CFU, 4 week (M. Tuberculosis Erdman [10]; [13]): 4.17 ± 0.21 Log CFU
Lung Log CFU, 8 week (M. Tuberculosis Erdman [10]; [13]): 2.45 ± 0.37 Log CFU
Spleen Log CFU, 2 week (M. Tuberculosis Erdman [10]; [13]): 4.53 ± 0.25 Log CFU
Spleen Log CFU, 4 week (M. Tuberculosis Erdman [10]; [13]): 3.90 ± 0.28 Log CFU
log10 CFU in lungs (M. Tuberculosis Erdman [10]; eight weeks, linezolid 100 mg/kg, detection limit 1.13): 2.45 log10 CFU
Log10 CFU reduction, lungs (M. Tuberculosis Erdman [10]; two weeks, Ls-AKG28 50 mg/kg twice weekly or 100 mg/kg once weekly, linezolid 100 mg/kg (q1x5)): less than 0.15 Log10 CFU
MIC (M.tb H37Rv; Mycobacterium tuberculosis, H37RV; as determined in Example 2; read-out: MIC (H37Rv)): 1 µg/mL (≈ 2.96 µM)
MIC (M.tb H37Rv; Mycobacterium tuberculosis, H37RV; read-out: Mycobacterium tuberculosis MIC, H37Rv): 1 µg/mL (≈ 2.96 µM)
MIC (M.tb Erdman; Mycobacterium tuberculosis, ERDMAN; read-out: Mycobacterium tuberculosis MIC, Erdman): 1 µg/mL (≈ 2.96 µM)
MIC (M.tb Erdman; Mycobacterium tuberculosis; M. tuberculosis Erdman / H37Rv, strains not separated; read-out: MIC): 2 µg/mL (≈ 5.93 µM)
AUC0-inf [11]: 373.53 µg·h/mL
Clearance [11]: 133.86 mL/h/kg
T ½ [11]: 11.86 h
Vd [11]: 2,291.26 mL/kg

— US20230348447A1, “OXAZOLIDINONE COMPOUNDS, LIPOSOME COMPOSITIONS COMPRISING OXAZOLIDINONE COMPOUNDS AND METHOD OF USE THEREOF” (priority 2020, published 2023)
